Structures are written as SMILES. Bounds are passed on as bounds.

Here are results for 31 compounds from US20070259879A1, “Piperazine and piperidine biaryl derivatives” (priority 2006, published 2007).

This test has as its system HIV-1 pseudotyped virus. Description: HIV-1 pseudotyped virus assay (luciferase reporter gene, single cycle of infection). It is filed as cell-based. As to conditions: Human immunodeficiency virus 1, CCR5, 72 h, read-out: Activity (antiviral activity, IC50). An excerpt: In this example are illustrated experimental procedures for determining biological activity, such as antiviral activity. For determining biological activity, an HIV-1 infection assay was used to determine the antiviral potency for compounds of the present invention.
For determining biological activity, an HIV-1 pseudotyped virus assay was used to determine the respective antiviral potencies of each compound tested in the assay for comparison. The pseudotyped assay scores for a reduction in infection as indicated by decreased signal from the reporter gene encoding a luciferase enzyme (“reporter gene”). The assay employs cell lines expressing CD4 and either of the primary chemokine receptors (CCR5 or CXCR4) that HIV uses as a co-receptor (“target cells”). Pseudotyped virus was prepared by co-transfection of 293T cells with: 1) a plasmid construct carrying the HIV-1 envelope of choice, in combination with 2) a pseudotyped virus backbone construct in which (a) envelope expression has been abrogated due to a frameshift in the envelope sequence, and (b) the reporter gene replaces nef. Expression of HIV-1 envelope on 293T packaging cells results in the production of a pseudotyped virus carrying the reporter gene that is capable of a single cycle of infection.
The compounds of the present invention being tested for antiviral activity were serially diluted and dose responses determined in duplicate in two separate experiments. The compounds to be tested were added directly to the plated, target cells, followed by the addition of pseudotyped virus described above. The cells were cultured for three days prior harvest. Media and compound were removed, the cell monolayer was washed, lysed by detergent, and then frozen at −80 degrees C. for a minimum of 30 minutes. Following thawing and acclimation to room temperature, luciferase production was quatified by injecting 100 […]I of a substrate (of the enzyme encoded by the reporter gene) into each well followed by detecting the signal (light emitted from the interaction between the enzyme and substrate) after 5 seconds. In the pseudotyped assay, a 50% reduction in signal is significant, and provides the primary cutoff value for assessing antiviral activity (“IC50” is defined as the dilution resulting in a 50% reduction in enzymatic activity as interpolated from a titration curve). Representative compounds according to the present invention, and their antiviral activity, are illustrated in Table 3.

For orientation: IC50 means the point on the concentration scale where inhibition reaches its midpoint. On to `C[C@@H]1CN(C(=O)c2ccccc2)CCN1C(=O)C(=O)c1ccc(-c2cnco2)cc1` [Example 101, 1-((R)-4-Benzoyl-2-methyl-piperazin-1-yl)-2-(4-oxazol-5-yl-phenyl)-ethane-1,2-dione], for which the half-maximal inhibitory concentration (IC50) was less than 5 µM.

`Cc1cc(-c2ccc(C(=O)C(=O)N3CCN(C(=O)c4ccccc4)C[C@H]3C)cc2)on1` [Example 102, 1-((R)-4-Benzoyl-2-methyl-piperazin-1-yl)-2-[4-(3-methyl-isoxazol-5-yl)-phenyl]-ethane-1,2-dione]: the half-inhibitory concentration (IC50) was less than 5 µM.

With `C[C@@H]1CN(C(=O)c2ccccc2)CCN1C(=O)C(=O)c1ccc(-c2nccs2)cc1` [Example 103, 1-((R)-4-Benzoyl-2-methyl-piperazin-1-yl)-2-(4-thiazol-2-yl-phenyl)-ethane-1,2-dione], the concentration for half-maximal inhibition (IC50) is less than 5 µM.

Turning to `Cc1nc(-c2ccc(C(=O)C(=O)N3CCN(C(=O)c4ccccc4)C[C@H]3C)cc2)cs1` [Example 104, 1-((R)-4-Benzoyl-2-methyl-piperazin-1-yl)-2-[4-(2-methyl-thiazol-4-yl)-phenyl]-ethane-1,2-dione], the half-maximal inhibitory concentration (IC50) is greater than 5 µM.

As to `C[C@@H]1CN(C(=O)c2ccccc2)CCN1C(=O)C(=O)c1ccc(-c2nnn(C)n2)cc1` [Example 105, 1-((R)-4-Benzoyl-2-methyl-piperazin-1-yl)-2-[4-(2-methyl-2H-tetrazol-5-yl)-phenyl]-ethane-1,2-dione], the IC50 is less than 5 µM.

In the case of `CO/N=C(\c1ccccc1)N1CCN(C(=O)C(=O)c2ccc(-c3cnco3)cc2)[C@H](C)C1` [Example 106, 1-((R)-4-{[Methoxyimino]-phenyl-methyl}-2-methyl-piperazin-1-yl)-2-(4-oxazol-5-yl-phenyl)-ethane-1,2-dione], the concentration for half-maximal inhibition (IC50) was less than 5 µM.

`Cc1noc(-c2ccc(S(=O)(=O)N3CCN(C(=O)c4ccccc4)CC3C)s2)n1` (stereo not shown) [Example 107, {3-Methyl-4-[5-(3-methyl-[1,2,4]oxadiazol-5-yl)-thiophene-2-sulfonyl]-piperazin-1-yl}-phenyl-methanone]: the IC50 is greater than 5 µM.

As to `CON(C)C(=O)c1ccc(S(=O)(=O)N2CCN(C(=O)c3ccccc3)CC2C)s1` (stereo not shown) [Example 108, 5-(4-Benzoyl-2-methyl-piperazine-1-sulfonyl)-thiophene-2-carboxylic acid methoxy-methyl-amide], the IC50 is less than 5 µM.

Regarding `CC1CN(C(=O)c2ccccc2)CCN1S(=O)(=O)c1ccc(-n2cncn2)s1` (stereo not shown) [Example 109, [3-Methyl-4-(5-[1,2,4]triazol-1-yl-thiophene-2-sulfonyl)-piperazin-1-yl]-phenyl-methanone], the concentration for half-maximal inhibition (IC50) was greater than 5 µM.

With `CC1CN(C(=O)c2ccccc2)CCN1S(=O)(=O)c1ccc(C(=O)c2ccco2)s1` (stereo not shown) [Example 110, {4-[5-(Furan-2-carbonyl)-thiophene-2-sulfonyl]-3-methyl-piperazin-1-yl}-phenylmethanone], the IC50 was greater than 5 µM.

With `CC1CN(C(=O)c2ccccc2)CCN1S(=O)(=O)c1ccc(C(=O)c2cnc[nH]2)s1` (stereo not shown) [Example 111, {4-[5-(3H-Imidazole-4-carbonyl)-thiophene-2-sulfonyl]-3-methyl-piperazin-1-yl}-phenyl-methanone], the IC50 is greater than 5 µM.

On to `CC1CN(C(=O)c2ccccc2)CCN1S(=O)(=O)c1ccc(C(=O)c2ccon2)s1` (stereo not shown) [Example 112, {4-[5-(Isoxazole-3-carbonyl)-thiophene-2-sulfonyl]-3-methyl-piperazin-1-yl}-phenyl-methanone], for which the IC50 is greater than 5 µM.

On to `CC1CN(C(=O)c2ccccc2)CCN1S(=O)(=O)c1cccc(-n2ccnn2)c1` (stereo not shown) [Example 113, [3-Methyl-4-(3-[1,2,3]triazol-1-yl-benzenesulfonyl)-piperazin-1-yl]-phenyl-methanone], for which the half-maximal inhibitory concentration (IC50) is greater than 5 µM.

For the compound `CC1CN(C(=O)c2ccccc2)CCN1S(=O)(=O)c1cccc(-n2cncn2)c1` (stereo not shown) [Example 114, [3-Methyl-4-(3-[1,2,4]triazol-1-yl-benzenesulfonyl)-piperazin-1-yl]-phenyl-methanone], the half-inhibitory concentration (IC50) is greater than 5 µM.

Turning to `CC1CN(C(=O)c2ccccc2)CCN1S(=O)(=O)c1cccc(-n2cccn2)c1` (stereo not shown) [Example 115, [3-Methyl-4-(3-pyrazol-1-yl-benzenesulfonyl)-piperazin-1-yl]-phenyl-methanone], the IC50 was greater than 5 µM.

`CC1CN(C(=O)c2ccccc2)CCN1S(=O)(=O)c1ccc(-n2ccnn2)cc1` (stereo not shown) [Example 116, [3-Methyl-4-(4-[1,2,3]triazol-1-yl-benzenesulfonyl)-piperazin-1-yl]-phenyl-methanone]: the 50% inhibitory concentration (IC50) is greater than 5 µM.

With `CC1CN(C(=O)c2ccccc2)CCN1S(=O)(=O)c1ccc(-n2nccn2)cc1` (stereo not shown) [Example 117, [3-methyl-4-(4-[1,2,3]triazol-2-yl-benzenesulfonyl)-piperazin-1-yl]-phenyl-methanone], the IC50 was greater than 5 µM.

As to `CC1CN(C(=O)c2ccccc2)CCN1S(=O)(=O)c1ccc(-n2cncn2)cc1` (stereo not shown) [Example 118, [3-Methyl-4-(4-[1,2,4]triazol-1-yl-benzenesulfonyl)-piperazin-1-yl]-phenyl-methanone], the half-inhibitory concentration (IC50) is greater than 5 µM.

In the case of `CC1CN(C(=O)c2ccccc2)CCN1S(=O)(=O)c1ccc(-n2cccn2)cc1` (stereo not shown) [Example 119, [3-Methyl-4-(4-pyrazol-1-yl-benzenesulfonyl)-piperazin-1-yl]-phenyl-methanone], the concentration for half-maximal inhibition (IC50) was greater than 5 µM.

As for `C[C@@H]1CN(C(=O)c2ccccc2)CCN1S(=O)(=O)c1ccc(-c2c[nH]nn2)cc1` [Example 120, {(R)-3-Methyl-4-[4-(1H-[1,2,3]triazol-4-yl)-benzenesulfonyl]-piperazin-1-yl)-phenyl-methanone], the IC50 is less than 5 µM.

As to `CC(C)Cn1cc(-c2ccc(S(=O)(=O)N3CCN(C(=O)c4ccccc4)C[C@H]3C)cc2)nn1` [Example 121, {(R)-4-[4-(1-Isobutyl-1H-[1,2,3]triazol-4-yl)-benzenesulfonyl]-3-methyl-piperazin-1-yl}-phenyl-methanone], the half-maximal inhibitory concentration (IC50) was greater than 5 µM.

Consider `C[C@@H]1CN(C(=O)c2ccccc2)CCN1S(=O)(=O)c1ccc(-c2cn(Cc3ccccc3)nn2)cc1` [Example 122, [(R)-4-[4-(1-Benzyl-1H-[1,2,3]triazol-4-yl)-benzenesulfonyl]-3-methyl-piperazine-1-yl}-phenyl-methanone], for which the IC50 was greater than 5 µM.

`CC(=O)c1ccc(-n2cc(-c3ccc(S(=O)(=O)N4CCN(C(=O)c5ccccc5)C[C@H]4C)cc3)nn2)cc1` [Example 123]: the concentration for half-maximal inhibition (IC50) was greater than 5 µM.

Consider `C[C@@H]1CN(C(=O)c2ccccc2)CCN1S(=O)(=O)c1ccc(-c2cc(-c3ccccc3)no2)cc1` [Example 124, {(R)-3-Methyl-4-[4-(3-phenyl-isoxazol-5-yl)-benzenesulfonyl]-piperazin-yl}-phenyl-methanone], for which the IC50 was greater than 5 µM.

Turning to `C[C@@H]1CN(C(=O)c2ccccc2)CCN1S(=O)(=O)c1ccc(-c2c[nH]nn2)s1` [Example 125, {(R)-3-Methyl-4-[5-(1H-[1,2,3]triazol-4-yl)-thiophene-2-sulfonyl]-piperazin-1-yl}-phenyl-methanone], the half-maximal inhibitory concentration (IC50) was greater than 5 µM.

For the compound `C[C@@H]1CN(C(=O)c2ccccc2)CCN1S(=O)(=O)c1ccc(-c2cn(Cc3ccccc3)nn2)s1` [Example 127, {(R)-4-[5-(1-Benzyl-1H-[1,2,3]triazol-4-yl)-thiophene-2-sulfonyl]-3-methyl-piperazin-1-yl}-phenyl-methanone], the IC50 is greater than 5 µM.

On to `CC(=O)c1ccc(-n2cc(-c3ccc(S(=O)(=O)N4CCN(C(=O)c5ccccc5)C[C@H]4C)s3)nn2)cc1` [Example 128], for which the concentration for half-maximal inhibition (IC50) is greater than 5 µM.

In the case of `Cc1c[nH]c(-n2cc(-c3ccc(S(=O)(=O)N4CCN(C(=O)c5ccccc5)C[C@H]4C)s3)nn2)n1` [Example 129, ((R)-3-Methyl-4-{5-[1-(4-methyl-1H-imidazol-2-yl)-1H-[1,2,3]triazol-4-yl]-thiophene-2-sulfonyl}-piperazin-1-yl)-phenyl-methanone], the IC50 is greater than 5 µM.

`CCOC(=O)c1sc(SC)nc1-n1cc(-c2ccc(S(=O)(=O)N3CCN(C(=O)c4ccccc4)C[C@H]3C)s2)nn1` [Example 130, 4-{4-[5-((R)-4-Benzoyl-2-methyl-piperazine-1-sulfonyl)-thiophen-2-yl]-[1,2,3]triazol-1-yl}-2-methylsulfanyl-thiazole-5-carboxylic acid ethyl ester]: the IC50 was greater than 5 µM.

With `C[C@@H]1CN(C(=O)c2ccccc2)CCN1S(=O)(=O)c1ccc(-c2cc(-c3ccccc3)no2)s1` [Example 131, {(R)-3-Methyl-4-[5-(3-phenyl-sioxazol-5-yl)-thiophene-2-sulfonyl]-piperazin-1-yl}-phenyl-methanone], the half-maximal inhibitory concentration (IC50) is greater than 5 µM.

For the compound `C[C@@H]1CN(C(=O)c2ccccc2)CCN1S(=O)(=O)c1ccc(-c2cc(C(=O)c3ccc(Cl)cc3)no2)s1` [Example 132, ((R)-4-{5-[3-(4-Chloro-benzoyl)-isoxazol-5-yl]-thiophene-2-sulfonyl}-3-methyl-piperazin-1-yl)-phenyl-methanone], the half-maximal inhibitory concentration (IC50) was greater than 5 µM.
